{"source": "paper PMC11478334", "about": "“Quaternized Curcumin Derivative—Synthesis, Physicochemical Characteristics, and Photocytotoxicity, Including Antibacterial Activity after Irradiation with Blue Light” (Molecules, 2024)", "key": {"[1]": {"system": "Streptococcus pyogenes ATCC 19615", "assay": "In vitro photodynamic inactivation of planktonic cells, 470 nm LED", "format": "cell-based", "conditions": "for irradiation time to complete eradication: 470 nm LED", "text": "The second experiment was designed to determine the time and concentration required to achieve the biological effect observed in the first experiment and to extend the study to other strains (Figure 12). Apart from S. aureus and E. coli, the Gram-positive Streptococcus pyogenes ATCC 19615, which is the etiologic agent of tonsillitis, and the Gram-negative Pseudomonas aeruginosa NCTC 6749, which is a major threat to hospitalized and immunocompromised patients due to its high antibiotic resistance, were used. The observed effect was strictly concentration-dependent (Table 6). According to the results, Gram-positive bacteria appear to be the most susceptible to the applied photocytotoxicity study. […] For S. pyogenes, the results were even more pronounced, as the complete eradication under the influence of compound 3 at a concentration of 10 µM occurred after only 5 min of irradiation, while at a concentration of 1 µM, complete eradication occurred after 15 min of irradiation. Interesting results were also obtained for Gram-negative bacteria. […] A high level of eradication of P. aeruginosa in the presence of compound 3 (10 µM) was observed after only 5 min of irradiation (log reduction: 4.29). […] Reductions in microbial survival were still observed with a decrease in compound concentration, but complete eradication was not achieved within the irradiation time.\nThe microorganisms used in the study were (i) standard strains of bacteria: Staphylococcus aureus NCTC 4163, Escherichia coli ATCC 25922, Pseudomonas aeruginosa NCTC 6749, and Streptococcus […] ATCC 19615, and (ii) fungi: Candida albicans ATCC 10231. The standard strains were obtained from the National Collection of Type Cultures (NCTC, Salisbury, UK) and the American Type Culture Collection (ATCC, Manassas, VA, USA). Bacterial and yeast strains were stored in Microbank cryogenic vials (Pro-Lab Diagnostics, Richmond Hill, ON, Canada) at −70 °C ± 10 °C. The bacteria were cultured aerobically in brain–heart infusion (BHI) broth (OXOID, Basingstoke, UK) at 36 °C ± 1 °C for 20 h. C. albicans cultures were grown in Sabouraud dextrose broth (SDB, Merck, Steinheim, Germany) at 36 °C for 20 h.\nThe organisms were harvested by centrifugation (3000× g for 15 min) and resuspended in 1.5 mL of 10 mM PBS, pH, 7.0 (Sigma-Aldrich, St. Louis, MO, USA). The cells were then diluted 1/100 in PBS to a final concentration of about 10^7 colony-forming units (CFUs)/mL. Aliquots (100 μL) of a standardized microbial suspension were placed in the wells of microtiter plates, and an equal volume of a solution of the tested compound was added to give final concentrations of 1 × 10^−5 (10 µM) and 1 × 10^−6 M (1 µM) (groups P+). Negative control wells contained the bacterial or yeast suspension and PBS without the photosensitizer (groups P−). All the samples were incubated in the dark for 20 min and irradiated by the LED panel at a distance of 10 mm for a specific period, depending on the experiment (groups L+). To evaluate the antimicrobial activity of the tested compounds, duplicate experimental samples were prepared but not irradiated (groups L−). Viable microorganisms were measured by counting the number of colony-forming units (CFUs) after appropriate serial dilution and culture on tryptic soy agar plates (TSA, OXOID, Basingstoke, UK) or Columbia Blood Agar with Sheep Blood (CAS, OXOID, Basingstoke, UK) for bacteria and Sabouraud dextrose agar (SDA, Merck, Steinheim, Germany) for fungi, following incubation at 36 °C ± 1 °C for 24–72 h. The number of surviving organisms and the log10 reduction in microbial cells for each sample were calculated using a formula available in the literature.\nLamp type—LED λmax~470 nm (LIU470A LED Array Light Source; Thorlabs Inc., Bergkirchen, Germany); irradiance—16.67 mW/cm^2 (measured with PM16-130 Power Meter, Thorlabs Inc., Bergkirchen, Germany, and Optel Opole Sp. z o.o., Opole, Poland)."}, "[2]": {"system": "S. aureus", "conditions": "10 µM; 440 nm; 1.944 J/cm^2; 3.6 mW/cm^2; 8.8 min; cited from earlier work"}, "[3]": {"system": "WM266-4 melanoma cell line", "design": "method as in Siwak et al. 49", "conditions": "after 96 h of incubation; ref Siwak et al. 49; cited from earlier work"}}, "data": [{"molecule": "C[N+]1(CCOc2ccc(C=CC3=CC(C=Cc4ccc(OCC[N+]5(C)CCOCC5)cc4)=[O+][B-](F)(F)O3)cc2)CCOCC1", "note": "[Compound 3]", "values": [{"measurement": "Log Red.", "setting": "[1]; 1 µM, 5 min irradiation 470 nm (5 J/cm^2)", "value": 3.03, "unit": "log"}, {"measurement": "irradiation time to complete eradication", "setting": "[1]; 1 µM", "value": 15, "unit": "min"}, {"measurement": "Log Red.", "setting": "[1]; 1 µM, 10 min irradiation 470 nm", "value": 4.51, "unit": "log"}, {"measurement": "Log Red.", "setting": "[1]; 1 µM, 15 min irradiation 470 nm", "value": ">4.93", "unit": "log"}, {"measurement": "Log Red.", "setting": "[1]; 10 µM, 5 min irradiation 470 nm (5 J/cm^2)", "value": ">4.93", "unit": "log"}, {"measurement": "irradiation time to complete eradication", "setting": "[1]; 10 µM", "value": 5, "unit": "min"}]}, {"molecule": "Curcumin [reference compound]", "values": [{"measurement": "Efficiency (log reduction)", "setting": "[2]", "value": 5.3, "unit": "log"}, {"measurement": "IC50", "setting": "[3]", "value": "~7", "unit": "µM"}]}, {"molecule": "F[B-]1(F)OC(/C=C/c2ccc(OCCN3CCOCC3)cc2)=CC(/C=C/c2ccc(OCCN3CCOCC3)cc2)=[O+]1", "note": "[Compound 2]", "values": [{"measurement": "melting point", "value": "170 to 173", "unit": "°C"}]}]}
